Experimental data published in BindingDB's records for doi:10.1021/bi035098j (Merck Research Laboratories, 2003).
pIC50: −log10 of the molar value.

Experiments:
[1] = target: T1, Tyrosine-protein phosphatase non-receptor type 1 [1-298] (Homo sapiens, UniProt P18031); experiment: PTP1B and TCPTP Inhibition Assay; conditions: pH 6.3; 22 °C
T1 construct: 1-298
T1 sequence (P18031 whole entry): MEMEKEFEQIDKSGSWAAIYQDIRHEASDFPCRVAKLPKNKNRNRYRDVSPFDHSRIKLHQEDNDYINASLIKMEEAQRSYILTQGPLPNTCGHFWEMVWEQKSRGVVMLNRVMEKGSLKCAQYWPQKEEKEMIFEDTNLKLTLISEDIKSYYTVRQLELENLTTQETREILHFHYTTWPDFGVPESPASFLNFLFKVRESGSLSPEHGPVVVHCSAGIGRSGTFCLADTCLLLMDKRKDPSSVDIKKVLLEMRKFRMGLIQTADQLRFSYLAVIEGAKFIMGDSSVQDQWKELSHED

[2] = target: T2, Tyrosine-protein phosphatase non-receptor type 2 (Homo sapiens, UniProt P17706); experiment: PTP1B and TCPTP Inhibition Assay; conditions: pH 6.3; 22 °C
T2 sequence (P17706 whole entry): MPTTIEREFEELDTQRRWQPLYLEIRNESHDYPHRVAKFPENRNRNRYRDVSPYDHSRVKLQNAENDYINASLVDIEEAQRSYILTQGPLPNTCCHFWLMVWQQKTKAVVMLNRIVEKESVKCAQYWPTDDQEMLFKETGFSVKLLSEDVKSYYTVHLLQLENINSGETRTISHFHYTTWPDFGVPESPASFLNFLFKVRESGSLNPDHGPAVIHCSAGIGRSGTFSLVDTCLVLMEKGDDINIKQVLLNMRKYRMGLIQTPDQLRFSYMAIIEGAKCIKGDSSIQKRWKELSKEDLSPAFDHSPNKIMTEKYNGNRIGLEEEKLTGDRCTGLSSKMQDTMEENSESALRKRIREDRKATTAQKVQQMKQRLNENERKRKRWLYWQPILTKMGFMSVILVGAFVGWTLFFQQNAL

Row | Compound | pIC50 [1] | pIC50 [2]
1 | CC(C)CCOc1ccc(-c2ccc(CC(Cc3ccc(C(F)(F)P(=O)(O)O)cc3)(c3ccccc3)n3nnc4ccccc43)cc2)cc1P(=O)(O)O (centres undefined) [5-{4-[2-(1H-1,2,3-benzotriazol-1-yl)-3-{4-[difluoro(phosphono)methyl]phenyl}-2-phenylpropyl]phenyl}-2-(3-methylbutoxy)benzene-1-phosphonic acid] | 8.22 | 7.70
2 | O=P(O)(O)C(F)(F)c1ccc(CC(Cc2ccc(-c3ccccc3)cc2)(c2ccccc2)n2nnc3ccccc32)cc1 (centres undefined) [({4-[2-(1H-1,2,3-benzotriazol-1-yl)-2-phenyl-3-(4-phenylphenyl)propyl]phenyl}difluoromethyl)phosphonic acid] | 7.42 | 7.62
3 | O=P(O)(O)C(F)(F)c1ccc(C[C@H](c2ccccc2)n2nnc3ccccc32)cc1 [({4-[(2R)-2-(1H-1,2,3-benzotriazol-1-yl)-2-phenylethyl]phenyl}difluoromethyl)phosphonic acid] | 5.09 | 
4 | CC(C)CC(O)c1ccc2cc(-c3ccc(CC(Cc4ccc(C(F)(F)P(=O)(O)O)cc4)(c4ccccc4)n4nnc5ccccc54)cc3)cc(P(=O)(O)O)c2n1 (centres undefined) [6-{4-[2-(1H-1,2,3-benzotriazol-1-yl)-3-{4-[difluoro(phosphono)methyl]phenyl}-2-phenylpropyl]phenyl}-2-(1-hydroxy-3-methylbutyl)quinoline-8-phosphonic acid] | 8.22 | 7.77
5 | COC(CC(C)C)c1ccc2cc(-c3ccc(CC(Cc4ccc(C(F)(F)P(=O)(O)O)cc4)(c4ccccc4)n4nnc5ccccc54)cc3)cc(P(=O)(O)O)c2n1 (centres undefined) [6-{4-[2-(1H-1,2,3-benzotriazol-1-yl)-3-{4-[difluoro(phosphono)methyl]phenyl}-2-phenylpropyl]phenyl}-2-(1-methoxy-3-methylbutyl)quinoline-8-phosphonic acid] |  | 7.44
6 | Cc1ccc2cc(-c3ccc(CC(Cc4ccc(C(F)(F)P(=O)(O)O)cc4)(c4ccccc4)n4nnc5ccccc54)cc3)cc(P(=O)(O)O)c2n1 (centres undefined) |  | 7.70
7 | O=P(O)(O)C(F)(F)c1ccc(CC(Cc2ccc(C(F)(F)P(=O)(O)O)cc2)(c2ccccc2)n2nnc3ccccc32)cc1 |  | 7.96
8 | COCOC(CC(C)C)c1ccc2cc(-c3ccc(CC(Cc4ccc(C(F)(F)P(=O)(O)O)cc4)(c4ccccc4)n4nnc5ccccc54)cc3)cc(P(=O)(O)O)c2n1 (centres undefined) [6-{4-[2-(1H-1,2,3-benzotriazol-1-yl)-3-{4-[difluoro(phosphono)methyl]phenyl}-2-phenylpropyl]phenyl}-2-[1-(methoxymethoxy)-3-methylbutyl]quinoline-8-phosphonic acid] | 7.96 | 7.68
9 | COc1ccc(-c2ccc(CC(Cc3ccc(C(F)(F)P(=O)(O)O)cc3)(c3ccccc3)n3nnc4ccccc43)cc2)cc1P(=O)(O)O (centres undefined) [5-{4-[2-(1H-1,2,3-benzotriazol-1-yl)-3-{4-[difluoro(phosphono)methyl]phenyl}-2-phenylpropyl]phenyl}-2-methoxybenzene-1-phosphonic acid] | 8.00 | 7.51
